Assay results from patent publication EP0565634B1, “ANGIOTENSIN II RECEPTOR BLOCKING COMPOSITIONS” (SMITHKLINE BEECHAM CORPORATION, priority 1990, dated 1992).
Where two headings read alike, the source gives them in different places.

Experiments:
[1] = target: vascular angiotensin II receptors; assay: Radioligand binding assay, displacement of 125I-angiotensin II; conditions: particular fraction from rat mesenteric arteries, 80 pM 125I-angiotensin II, 1 hour at 25°C
Procedure: (§1) Angiotensin II antagonist activity of the compounds of Formula (I) is assessed by in vitro and in vivo methods. In vitro antagonist activity is determined by the ability of the compounds to compete with ^125I-angiotensin II for binding to vascular angiotensin II receptors and by their ability to antagonize the contractile response to angiotensin II in the isolated rabbit aorta. In vivo activity is evaluated by the efficacy of the compounds to inhibit the pressor response to exogenous angiotensin II in conscious rats and to lower blood pressure in a rat model of renin dependent hypertension.
The radioligand binding assay is a modification of a method previously described in detail (Gunther et al., Circ. Res. 47:278, 1980). A particular fraction from rat mesenteric arteries is incubated in Tris buffer with 80 pM of ^125I-angiotensin II with or without angiotensin II antagonists for 1 hour at 25°C. The incubation is terminated by rapid filtration and receptor bound ^125I-angiotensin II trapped on the filter is quantitated with a gamma counter. The potency of angiotensin II antagonists is expressed as the IC50 which is the concentration of antagonist needed to displace 50% of the total specifically bound angiotensin II. The IC50 of (E)-3-[2-n-butyl-1-{(4-carboxyphenyl)methyl}-1H-imidazol-5-yl]-2-(2-thienyl)methyl-2-propenoic acid is about 1.0 nM.

[2] = tested on: pressor response to exogenous angiotensin II; assay: Inhibition of pressor response to angiotensin II in conscious rats; assay type: in vivo; conditions: Rattus norvegicus, intravenous injections of 250 mg/kg angiotensin II, read-out: IC50 (dose needed to produce 50% inhibition of the control response to angiotensin II)
Procedure: as §1
Rats are prepared with indwelling femoral arterial and venous catheters and a stomach tube (Gellai et al., Kidney Int. 15:419, 1979). Two to three days following surgery the rats are placed in a restrainer and blood pressure is continuously monitored from the arterial catheter with a pressure transducer and recorded on a polygraph. The change in mean arterial pressure in response to intravenous injections of […] angiotensin II is compared at various time points prior to and following the administration of the compounds intravenously or orally at doses of 0.1 to 300 mg/kg. The dose of compound needed to produce 50% inhibition of the control response to angiotensin II (IC50) is used to estimate the potency of the compounds.

mean arterial pressure = assay: Antihypertensive activity in renal artery ligated, renin-dependent hypertensive conscious rats; assay type: in vivo; conditions: Rattus norvegicus, po, 192 h, orally, seven to eight days following ligation, read-out: IC30 (dose needed to reduce mean arterial pressure by 30 mmHg)
Procedure: as §1
The antihypertensive activity of the compounds is measured by their ability to reduce mean arterial pressure in conscious rats made renin-dependent hypertensive by ligation of the left renal artery (Cangiano et al;., J. Pharmacol. Exp. Ther. 208:310, 1979). Renal artery ligated rats are prepared with indwelling catheters as described above. Seven to eight days following renal artery ligation, the time at which plasma renin levels are highest, the conscious rats are placed in restrainers and mean arterial pressure is continuously recorded prior to and following the administration of the compounds intravenously or orally. The dose of compound needed to reduce mean arterial pressure by 30 mmHg (IC30) is used as an estimate of potency. […]

CCCCc1ncc(/C=C(\Cc2cccs2)C(=O)O)n1Cc1ccc(C(=O)O)cc1 [(E)-3-[2-n-butyl-1-{(4-carboxyphenyl)methyl}-1H-imidazol-5-yl]-2-(2-thienyl)methyl-2-propenoic acid]
IC50 [1]: ~1 nM | ED50 ([2]; i.v.): ~0.1 mg/kg | ED50 ([2]; po, orally): ~5.5 mg/kg | ED (30 mmHg) (mean arterial pressure): ~10 mg/kg
